What was measured:
Assay in all cases: Comparative tests by the post-emergence method
Type in all cases: in vivo
Abutilon theophrasti = system: Abutilon theophrasti
Experimental: (§1) Seeds of monocotyledonous and dicotyledonous weed and crop plants are placed in sandy loam in wood-fiber pots, covered with soil and cultivated in a greenhouse under good growth conditions. 2 to 3 weeks after sowing, the test plants are treated at the one-leaf stage. The inventive compounds formulated in the form of wettable powders (WP) or as emulsion concentrates (EC) are then sprayed onto the green parts of the plants as an aqueous suspension or emulsion at a water application rate of 600 to 800 I/ha (converted) with addition of 0.2% wetting agent. After the test plants have been left to stand in the greenhouse under optimal growth conditions for about 3 weeks, the action of the formulations is assessed visually in comparison to untreated controls (herbicidal action in percent (%): 100% activity=the plants have died, 0% activity=like control plants). Here, the compounds Nos. 1-02, 1-03, 1-05, 1-06, 1-14, 1-15, 2-01, 2-02, 2-03, 2-04, 2-05, 2-06, 2-16, 2-17, 2-18, 2-19, 2-20, 2-21, 2-22, 2-23, 2-24, 2-25, 2-26, 2-27, 2-28, 2-29, 2-30, 2-31, 2-33, 2-34, 2-35, 2-39, 2-40, 2-41, 2-43, 2-44, 2-45, 2-46, 2-47, 2-48, 2-49, 2-50, 2-51, 2-52, 2-53, 2-60, 2-61, 2-62, 2-63, 2-64, 2-65, 2-69 and 2-83 each show, at an application rate of 80 g/ha, an activity of at least 80% against Abutilon theophrasti and Veronica persica. The compounds Nos. 1-14, 2-32, 2-42, 2-66, 2-67, 2-69 and 2-83, at an application rate of 80 g/ha, each show an activity of at least 80% against Amaranthus retroflexus and Stellaria media.
(§2) For comparative tests, the compound No. 1-15 according to the invention and the compounds No. 118 and No. 119 known from EP 0 049 071 A1 were tested by the post-emergence method at various dosages against a number of harmful plants.
(§3) ABUTH Abutilon theophrasti PHBPU Pharbitis purpureum

Pharbitis purpureum = system: Pharbitis purpureum
Experimental: as §1, §2, §3

Veronica persica = system: Veronica persica
Experimental: as §1, §2

Cc1cc(C(=O)Nc2ncnn2C)c(Cl)cc1S(C)(=O)=O [No. 1-15]
Herbicidal action against ABUTH (Abutilon theophrasti; dosage 5 g/ha): 90%
Herbicidal action against ABUTH (Abutilon theophrasti; dosage 20 g/ha): 90%
Herbicidal action against ABUTH (Abutilon theophrasti; dosage 80 g/ha): 90%
Herbicidal action against PHBPU (Pharbitis purpureum; dosage 5 g/ha): 80%
Herbicidal action against PHBPU (Pharbitis purpureum; dosage 20 g/ha): 80%
Herbicidal action against PHBPU (Pharbitis purpureum; dosage 80 g/ha): 80%
Herbicidal action against VERPE (Veronica persica; dosage 5 g/ha): 40%
Herbicidal action against VERPE (Veronica persica; dosage 20 g/ha): 80%
Herbicidal action against VERPE (Veronica persica; dosage 80 g/ha): 80%

COc1cccc(OC)c1C(=O)Nc1nc[nH]n1 [Compound No. 119, N-(1H-1,2,4-triazol-3-yl)-2,6-dimethoxybenzamide]
Herbicidal action against ABUTH (Abutilon theophrasti; dosage 5 g/ha): 0%
Herbicidal action against ABUTH (Abutilon theophrasti; dosage 20 g/ha): 0%
Herbicidal action against ABUTH (Abutilon theophrasti; dosage 80 g/ha): 0%
Herbicidal action against PHBPU (Pharbitis purpureum; dosage 5 g/ha): 0%
Herbicidal action against PHBPU (Pharbitis purpureum; dosage 20 g/ha): 0%
Herbicidal action against PHBPU (Pharbitis purpureum; dosage 80 g/ha): 0%
Herbicidal action against VERPE (Veronica persica; dosage 5 g/ha): 0%
Herbicidal action against VERPE (Veronica persica; dosage 20 g/ha): 0%
Herbicidal action against VERPE (Veronica persica; dosage 80 g/ha): 0%

CCC(C)(CC)c1nnc(NC(=O)c2c(OC)cccc2OC)[nH]1 [Compound No. 118, N-[5-(1-ethyl-1-methylpropyl)-4H-1,2,4-triazol-3-yl]-2,6-dimethoxybenzamide]
Herbicidal action against ABUTH (Abutilon theophrasti; dosage 5 g/ha): 0%
Herbicidal action against ABUTH (Abutilon theophrasti; dosage 20 g/ha): 0%
Herbicidal action against ABUTH (Abutilon theophrasti; dosage 80 g/ha): 0%
Herbicidal action against PHBPU (Pharbitis purpureum; dosage 5 g/ha): 0%
Herbicidal action against PHBPU (Pharbitis purpureum; dosage 20 g/ha): 0%
Herbicidal action against PHBPU (Pharbitis purpureum; dosage 80 g/ha): 0%
Herbicidal action against VERPE (Veronica persica; dosage 5 g/ha): 0%
Herbicidal action against VERPE (Veronica persica; dosage 20 g/ha): 0%
Herbicidal action against VERPE (Veronica persica; dosage 80 g/ha): 0%

From patent US9259001B2, “5-phenyl-substituted N-(tetrazol-5-yl) aryl carboxylic acid amides and N-(triazol-5-yl) aryl carboxylic acid amides, and use thereof as herbicides” (BAYER INTELLECTUAL PROPERTY GMBH, priority 2011, dated 2016)
